Data reported in patent US12365687B2 (Hoffmann-La Roche Inc., priority 2021, dated 2025).
Like-named read-outs stand apart in the source and are kept apart here.

What was measured:
[1] = biological target: α2β2γ1 GABAA receptor subtype (Homo sapiens (Human), UniProt P47869+Q8N1C3); assay: Two-electrode voltage clamp electrophysiology in Xenopus oocytes expressing GABAA receptors (modulation of GABA EC20 current); assay type: cell-based; details: for Efficacy (GABA)%: % modulation of GABA EC20 = 100*(Fold increase-1), α2β2γ1 oocytes, compound at approx. 30-fold Ki; for Fold increase h-GABA-A α2β2γ1 oocyte @ 30-fold Ki: Xenopus oocytes expressing α2β2γ1, compound at approx. 30-fold its Ki α2β2γ1, GABA EC20 current
Summary of the method: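 Each concentration was tested on ≥3 oocytes held at −80 mV at room temperature, recorded 3-5 days post-injection. A control and a test response to EC20 GABA (1.5 min each) were superimposed and their point-by-point ratio taken. Peak ratio reported as % modulation of GABA EC20 = 100×(fold increase−1).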

[2] = biological target: human GABAA α1β3γ2 receptor (Homo sapiens (Human), UniProt P14867+P18507); assay: Radioligand binding assay for γ2-containing GABAA subtypes, [3H]Flumazenil competition (α1β3γ2); details: for γ2/γ1 Selectivity Ratio: Ki α1β3γ2 (nM)/Ki α2β2γ1 (nM); for LogSel: Log[Ki α1β3γ2 (nM)/Ki α2β2γ1 (nM)]
[3] = biological target: human GABAA α5β2γ1 receptor (Homo sapiens (Human), UniProt P31644+Q8N1C3); assay: Radioligand binding assay for γ1-containing GABAA subtypes, [3H]RO7239181 competition (α5β2γ1)
[4] = biological target: human GABAA α2β2γ1 receptor (Homo sapiens (Human), UniProt P47869+Q8N1C3); assay: Radioligand binding assay for γ1-containing GABAA subtypes, [3H]RO7239181 competition (α2β2γ1)
[5] = Ki h-GABAA α2β2γ1, [3H]RO7239181 competition binding, human GABAA α2β2γ1
[6] = Ki h-GABAA α2β2γ1, displacement of [3H]RO7239181, membranes of HEK293F cells expressing human receptors, means of two determinations

Row | Compound | Efficacy (GABA)% [1] [%] | Fold increase h-GABA-A α2β2γ1 oocyte @ 30-fold Ki [1] | Ki [2] [nM] | γ2/γ1 Selectivity Ratio [2] | LogSel [2] | Ki [3] [nM] | Ki [4, 5] [nM] | Ki [4, 6] [nM] | γ2/γ1 Selectivity Ratio ([2]; Table 3) | LogSel ([2]; Table 3) | Ki ([2]; read-out: Ki h-GABAA α1β3γ2, Table 3, reference compounds) [nM] | Ki ([4]; Ki h-GABAA α2β2γ1, Table 3, reference compounds) [nM]
1 | C[C@@H]1N=C(c2ncccc2F)c2c(ccc(C(F)(F)F)c2Cl)-n2nc(C(=O)N3CC4(CCOC4)C3)nc21 [Example 120, 6-oxa-2-azaspiro[3.4]octan-2-yl-[(4S)-7-chloro-6-(3-fluoro-2-pyridyl)-4-methyl-8-(trifluoromethyl)-4H-[1,2,4]triazolo[1,5-a][1,4]benzodiazepin-2-yl]methanone] | 178 | 2.78 | 5330 | 66.3 | 1.82 | 8.55 | 80.4 | 80.4 |  |  |  | 
2 | C[C@@H]1N=C(c2c(F)cccc2F)c2c(ccc(Cl)c2Cl)-n2nc(OC3COC3)nc21 [Example 92, (4S)-7,8-dichloro-6-(2,6-difluorophenyl)-4-methyl-2-(oxetan-3-yloxy)-4H-[1,2,4]triazolo[1,5-a][1,4]benzodiazepine] | 44 | 1.44 | 3280 | 73.0 | 1.86 | 4.45 | 44.9 | 44.9 |  |  |  | 
3 | COC1CN(C(=O)c2nc3n(n2)-c2ccc(Cl)c(Cl)c2C(c2c(F)cccc2F)=NC3)C1 [Example 11, [7,8-dichloro-6-(2,6-difluorophenyl)-4H-[1,2,4]triazolo[1,5-a][1,4]benzodiazepin-2-yl]-(3-methoxyazetidin-1-yl)methanone] | 62 | 1.62 | 451 | 166.3 | 2.22 | 0.84 | 2.7 | 2.71 |  |  |  | 
4 | C[C@H](O)CNC(=O)c1cn2c(n1)[C@H](C)N=C(c1ncccc1F)c1c-2ccc(C(F)(F)F)c1Cl [Example 155, (4S)-7-chloro-6-(3-fluoro-2-pyridyl)-4-methyl-N-[(2S)-2-hydroxypropyl]-8-(trifluoromethyl)-4H-imidazo[1,2-a][1,4]benzodiazepine-2-carboxamide] | 193 | 2.93 | 8990 | 182.4 | 2.26 | 10.8 | 49.7 | 49.3 |  |  |  | 
5 | C[C@@H]1N=C(c2c(F)cccc2F)c2c(ccc(Cl)c2Cl)-n2nc(C3COC3)nc21 [Example 81, (4S)-7,8-dichloro-6-(2,6-difluorophenyl)-4-methyl-2-(oxetan-3-yl)-4H-[1,2,4]triazolo[1,5-a][1,4]benzodiazepine] | 53 | 1.53 | 563 | 87.4 | 1.94 | 1.63 | 6.4 | 6.45 |  |  |  | 
6 | CC(=O)NCc1nc2n(n1)-c1ccc(Cl)c(Cl)c1C(c1c(F)cccc1F)=N[C@H]2C [Example 67, N-[[(4S)-7,8-dichloro-6-(2,6-difluorophenyl)-4-methyl-4H-[1,2,4]triazolo[1,5-a][1,4]benzodiazepin-2-yl]methyl]acetamide] | 47 | 1.47 | 503 | 96.5 | 1.98 | 0.79 | 5.2 | 5.2 |  |  |  | 
7 | C[C@@H]1N=C(c2c(F)cccc2F)c2c(ccc(C(F)(F)F)c2Cl)-n2nc(C(=O)NCC#N)nc21 [Example 110, (4S)-7-chlor-N-(cyanomethyl)-6-(2,6-difluorophenyl)-4-methyl-8-(trifluoromethyl)-4H-[1,2,4]triazolo[1,5-a][1,4]benzodiazepine-2-carboxamide] | 119 | 2.19 | 2480 | 205.1 | 2.31 | 2.64 | 12.1 | 12.1 |  |  |  | 
8 | COC1CN(C(=O)Nc2nc3n(n2)-c2ccc(C(F)(F)F)c(Cl)c2C(c2c(F)cccc2F)=N[C@H]3C)C1 [Example 127, N-[(4S)-7-chloro-6-(2,6-difluorophenyl)-4-methyl-8-(trifluoromethyl)-4H-[1,2,4]triazolo[1,5-a][1,4]benzodiazepin-2-yl]-3-methoxy-azetidine-1-carboxamide] | 112 | 2.12 | 4760 | 96.5 | 1.98 | 5.46 | 49.4 | 49.4 |  |  |  | 
9 | [2H]C([2H])([2H])N(C(=O)c1nc2n(n1)-c1ccc(Cl)c(Cl)c1C(c1c(F)cccc1F)=N[C@H]2C)C([2H])([2H])[2H] [Example 19, (4S)-7,8-dichlor-6-(2,6-difluorophenyl)-4-methyl-N,N-bis(trideuteriomethyl)-4H-[1,2,4]triazolo[1,5-a][1,4]benzodiazepine-2-carboxamide] | 97 | 1.97 | 2650 | 81.5 | 1.91 | 1.98 | 32.5 | 32.5 | 81.5 | 1.91 | 2650 | 32.5
10 | C[C@@H]1N=C(c2c(F)cccc2F)c2c(ccc(Cl)c2Cl)-n2nc(C(=O)NC[C@@H](C)O)nc21 [Example 65, (4S)-7,8-dichloro-6-(2,6-difluorophenyl)-4-methyl-N-[(2R)-2-hydroxypropyl]-4H-[1,2,4]triazolo[1,5-a][1,4]benzodiazepine-2-carboxamide] | 80 | 1.80 | 492 | 84.8 | 1.93 | 0.5 | 5.8 | 5.8 |  |  |  | 
11 | Cc1cnc2n1-c1ccc(Br)c(Cl)c1C(c1c(F)cccc1F)=N[C@H]2C [Example 116, (4S)-8-bromo-7-chloro-6-(2,6-difluorophenyl)-1,4-dimethyl-4H-imidazo[1,2-a][1,4]benzodiazepine] | 35 | 1.35 | 94.5 | 16.4 | 1.22 | 2.47 | 5.7 | 5.7 |  |  |  | 
12 | CC1CN(C(=O)c2cn3c(n2)[C@H](C)N=C(c2ncccc2F)c2c-3ccc(C(F)(F)F)c2Cl)C1 [Example 163, (3-methylazetidin-1-yl)-[(4S)-7-chloro-6-(3-fluoro-2-pyridyl)-4-methyl-8-(trifluoromethyl)-4H-imidazo[1,2-a][1,4]benzodiazepin-2-yl]methanone] | 136 | 2.36 | 13500 | 134.0 | 2.13 | 20.6 | 87.1 | 101 |  |  |  | 
13 | Cc1nc2n(n1)-c1ccc(C(F)(F)F)c(Cl)c1C(c1ncccc1F)=N[C@H]2C [Example 83, (4S)-7-chloro-6-(3-fluoro-2-pyridyl)-2,4-dimethyl-8-(trifluoromethyl)-4H-[1,2,4]triazolo[1,5-a][1,4]benzodiazepine] | 154 | 2.54 | 5490 | 77.6 | 1.89 | 5.54 | 70.8 | 70.8 |  |  |  | 
14 | C[C@@H]1N=C(c2c(F)cccc2F)c2c(ccc(Cl)c2Cl)-n2nc(C(=O)NC3(C#N)CC3)nc21 [Example 61, (4S)-7,8-dichloro-N-(1-cyanocyclopropyl)-6-(2,6-difluorophenyl)-4-methyl-4H-[1,2,4]triazolo[1,5-a][1,4]benzodiazepine-2-carboxamide] | 99 | 1.99 | 585 | 140.0 | 2.15 | 1.45 | 4.2 | 4.18 |  |  |  | 
15 | CNC(=O)c1nc2n(n1)-c1ccc(Cl)c(Cl)c1C(c1c(F)cccc1F)=NC2 [Example 6, 7,8-dichloro-6-(2,6-difluorophenyl)-N-methyl-4H-[1,2,4]triazolo[1,5-a][1,4]benzodiazepine-2-carboxamide] | 101 | 2.01 | 1440 | 260.9 | 2.42 | 0.75 | 5.5 | 5.5 |  |  |  | 
16 | C[C@@H]1N=C(c2c(F)cccc2F)c2c(ccc(Cl)c2Cl)-n2cc(C(=O)N3CCC3)nc21 [Example 70, azetidin-1-yl-[(4S)-7,8-dichloro-6-(2,6-difluorophenyl)-4-methyl-4H-imidazo[1,2-a][1,4]benzodiazepin-2-yl]methanone] | 73 | 1.73 | 500 | 26.7 | 1.43 | 1.08 | 18.7 | 18.7 |  |  |  | 
